Laboratory results from ChEMBL document CHEMBL4507276 (2021).

Columns and labels:
[1] = target: Death-associated protein kinase 3 (Homo sapiens) (UniProt O43293); settings: Compound concentration 1000.0 nM
[2] = target: T1, Alpha-1B adrenergic receptor (Homo sapiens) (UniProt P35368); test: ALPHA1B/HU Cerep selectivity data (BI); settings: Compound concentration 20.0 uM
T1 sequence (whole entry): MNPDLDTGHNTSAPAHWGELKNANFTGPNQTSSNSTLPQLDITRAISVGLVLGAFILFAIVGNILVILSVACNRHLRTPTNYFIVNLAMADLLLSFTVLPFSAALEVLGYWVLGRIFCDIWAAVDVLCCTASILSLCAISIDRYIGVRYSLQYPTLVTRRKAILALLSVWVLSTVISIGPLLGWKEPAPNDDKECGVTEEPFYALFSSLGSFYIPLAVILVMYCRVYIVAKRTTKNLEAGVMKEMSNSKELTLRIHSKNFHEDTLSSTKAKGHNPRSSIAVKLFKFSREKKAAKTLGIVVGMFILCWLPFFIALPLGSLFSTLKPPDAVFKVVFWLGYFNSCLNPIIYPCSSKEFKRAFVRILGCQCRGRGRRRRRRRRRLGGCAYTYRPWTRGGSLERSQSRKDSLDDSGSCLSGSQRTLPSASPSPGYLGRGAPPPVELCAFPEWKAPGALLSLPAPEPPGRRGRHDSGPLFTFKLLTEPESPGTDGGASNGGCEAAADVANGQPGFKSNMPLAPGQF

[3] = target: B2 bradykinin receptor (Homo sapiens) (UniProt P30411); test: B2/HUM Cerep selectivity data (BI); settings: Compound concentration 20.0 uM
B2 bradykinin receptor (Homo sapiens), sequence (P30411 whole entry): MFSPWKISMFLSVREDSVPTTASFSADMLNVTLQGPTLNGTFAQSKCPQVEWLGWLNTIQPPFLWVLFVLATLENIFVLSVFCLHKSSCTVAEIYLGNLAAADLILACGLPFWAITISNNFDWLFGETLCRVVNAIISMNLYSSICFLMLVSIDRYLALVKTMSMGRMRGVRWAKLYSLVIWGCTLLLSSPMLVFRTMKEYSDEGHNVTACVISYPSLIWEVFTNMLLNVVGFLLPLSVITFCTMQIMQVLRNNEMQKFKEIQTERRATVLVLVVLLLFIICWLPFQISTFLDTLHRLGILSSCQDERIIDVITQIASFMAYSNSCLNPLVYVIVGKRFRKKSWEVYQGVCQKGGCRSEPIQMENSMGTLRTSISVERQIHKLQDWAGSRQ

[4] = target: Tumor necrosis factor (Homo sapiens) (UniProt P01375); test: TNFALPHA/H Cerep selectivity data (BI); settings: Compound concentration 20.0 uM
Tumor necrosis factor (Homo sapiens), sequence (P01375 whole entry): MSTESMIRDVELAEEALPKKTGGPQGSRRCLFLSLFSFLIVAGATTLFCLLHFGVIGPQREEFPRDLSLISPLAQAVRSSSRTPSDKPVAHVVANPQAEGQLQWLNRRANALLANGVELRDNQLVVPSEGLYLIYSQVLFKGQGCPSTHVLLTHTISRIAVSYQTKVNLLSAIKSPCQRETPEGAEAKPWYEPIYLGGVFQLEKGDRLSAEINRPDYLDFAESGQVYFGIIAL

[5] = target: T2, Inhibitor of nuclear factor kappa-B kinase subunit alpha (Homo sapiens) (UniProt O15111); test: CHUK_IKKA Invitrogen selectivity data (BI); settings: Compound concentration 3.0 uM
T2 sequence (whole entry): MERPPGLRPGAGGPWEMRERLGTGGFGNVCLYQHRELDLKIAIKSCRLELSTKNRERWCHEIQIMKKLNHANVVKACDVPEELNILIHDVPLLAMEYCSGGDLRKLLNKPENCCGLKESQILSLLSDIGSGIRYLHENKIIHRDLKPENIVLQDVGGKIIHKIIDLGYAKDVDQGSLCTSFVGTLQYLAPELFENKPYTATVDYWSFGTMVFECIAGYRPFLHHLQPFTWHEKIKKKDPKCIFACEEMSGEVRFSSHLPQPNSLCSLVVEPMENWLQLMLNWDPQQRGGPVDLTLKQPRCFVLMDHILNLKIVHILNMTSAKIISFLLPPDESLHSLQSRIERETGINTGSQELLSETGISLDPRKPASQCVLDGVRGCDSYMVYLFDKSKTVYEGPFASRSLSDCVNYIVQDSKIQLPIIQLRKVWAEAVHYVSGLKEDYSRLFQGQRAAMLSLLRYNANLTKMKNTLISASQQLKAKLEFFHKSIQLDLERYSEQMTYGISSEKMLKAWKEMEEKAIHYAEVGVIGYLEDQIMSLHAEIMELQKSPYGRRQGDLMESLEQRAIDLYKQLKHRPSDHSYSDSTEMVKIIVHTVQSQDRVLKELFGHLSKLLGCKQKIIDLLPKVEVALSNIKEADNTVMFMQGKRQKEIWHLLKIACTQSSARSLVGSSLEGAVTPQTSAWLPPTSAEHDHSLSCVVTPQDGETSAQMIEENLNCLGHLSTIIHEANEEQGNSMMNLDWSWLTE

[6] = target: T3, Ephrin type-B receptor 4 (Homo sapiens) (UniProt P54760); test: EPHB4 Invitrogen selectivity data (BI); settings: Compound concentration 3.0 uM
T3 sequence (whole entry): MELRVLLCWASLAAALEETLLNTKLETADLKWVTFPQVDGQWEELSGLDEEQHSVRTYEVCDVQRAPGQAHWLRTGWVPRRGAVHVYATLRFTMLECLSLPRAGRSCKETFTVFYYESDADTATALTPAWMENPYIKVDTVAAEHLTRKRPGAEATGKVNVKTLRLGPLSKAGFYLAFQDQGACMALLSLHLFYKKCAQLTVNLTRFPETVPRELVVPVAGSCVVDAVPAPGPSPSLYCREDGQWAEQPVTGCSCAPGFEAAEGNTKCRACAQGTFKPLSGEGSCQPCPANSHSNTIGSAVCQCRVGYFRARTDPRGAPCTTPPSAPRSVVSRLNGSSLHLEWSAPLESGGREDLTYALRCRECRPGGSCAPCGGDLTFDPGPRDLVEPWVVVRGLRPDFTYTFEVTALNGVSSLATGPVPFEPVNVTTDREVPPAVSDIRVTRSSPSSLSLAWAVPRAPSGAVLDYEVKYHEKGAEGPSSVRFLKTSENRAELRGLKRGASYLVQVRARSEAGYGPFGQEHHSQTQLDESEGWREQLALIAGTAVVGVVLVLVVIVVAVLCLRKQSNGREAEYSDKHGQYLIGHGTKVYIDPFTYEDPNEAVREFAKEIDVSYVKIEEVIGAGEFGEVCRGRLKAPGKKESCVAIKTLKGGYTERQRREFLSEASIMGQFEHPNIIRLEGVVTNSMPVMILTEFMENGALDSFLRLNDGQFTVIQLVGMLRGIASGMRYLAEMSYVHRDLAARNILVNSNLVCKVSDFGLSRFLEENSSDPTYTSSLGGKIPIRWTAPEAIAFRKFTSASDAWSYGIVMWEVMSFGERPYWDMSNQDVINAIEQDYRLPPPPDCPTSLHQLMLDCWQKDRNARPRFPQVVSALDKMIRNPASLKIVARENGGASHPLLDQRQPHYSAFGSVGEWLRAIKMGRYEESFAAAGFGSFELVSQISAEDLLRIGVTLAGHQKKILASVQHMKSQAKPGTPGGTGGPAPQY

[7] = target: Mitogen-activated protein kinase 8 (Homo sapiens) (UniProt P45983); test: MAPK8 Invitrogen selectivity data (BI); settings: Compound concentration 3.0 uM
Mitogen-activated protein kinase 8 (Homo sapiens), sequence (P45983 whole entry): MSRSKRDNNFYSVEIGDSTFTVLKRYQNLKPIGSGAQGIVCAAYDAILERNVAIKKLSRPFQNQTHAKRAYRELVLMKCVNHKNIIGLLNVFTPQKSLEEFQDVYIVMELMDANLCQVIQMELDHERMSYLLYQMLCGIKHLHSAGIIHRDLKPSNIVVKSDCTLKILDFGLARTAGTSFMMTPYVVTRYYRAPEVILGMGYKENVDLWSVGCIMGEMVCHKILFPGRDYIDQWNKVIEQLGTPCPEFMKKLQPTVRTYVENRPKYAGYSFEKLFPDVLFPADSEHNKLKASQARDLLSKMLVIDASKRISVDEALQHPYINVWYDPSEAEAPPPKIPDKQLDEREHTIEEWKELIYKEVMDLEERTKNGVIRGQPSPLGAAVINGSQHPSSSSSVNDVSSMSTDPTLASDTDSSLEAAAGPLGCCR

[8] = target: Serine/threonine-protein kinase pim-1 (Homo sapiens) (UniProt P11309); test: PIM1 Invitrogen selectivity data (BI); settings: Compound concentration 3.0 uM
Serine/threonine-protein kinase pim-1 (Homo sapiens), sequence (P11309 whole entry, looked up): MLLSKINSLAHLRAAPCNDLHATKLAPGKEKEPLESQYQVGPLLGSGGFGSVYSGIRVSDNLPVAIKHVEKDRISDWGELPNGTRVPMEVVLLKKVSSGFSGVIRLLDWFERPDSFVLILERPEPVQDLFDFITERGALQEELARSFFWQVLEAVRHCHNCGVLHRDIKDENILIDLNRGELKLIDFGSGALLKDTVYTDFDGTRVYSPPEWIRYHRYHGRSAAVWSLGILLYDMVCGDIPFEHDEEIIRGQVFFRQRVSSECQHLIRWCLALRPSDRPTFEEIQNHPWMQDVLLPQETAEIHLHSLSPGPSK

[9] = target: T4, Aurora kinase A (Homo sapiens) (UniProt O14965); test: STK6 Invitrogen selectivity data (BI); settings: Compound concentration 3.0 uM
T4 sequence (whole entry): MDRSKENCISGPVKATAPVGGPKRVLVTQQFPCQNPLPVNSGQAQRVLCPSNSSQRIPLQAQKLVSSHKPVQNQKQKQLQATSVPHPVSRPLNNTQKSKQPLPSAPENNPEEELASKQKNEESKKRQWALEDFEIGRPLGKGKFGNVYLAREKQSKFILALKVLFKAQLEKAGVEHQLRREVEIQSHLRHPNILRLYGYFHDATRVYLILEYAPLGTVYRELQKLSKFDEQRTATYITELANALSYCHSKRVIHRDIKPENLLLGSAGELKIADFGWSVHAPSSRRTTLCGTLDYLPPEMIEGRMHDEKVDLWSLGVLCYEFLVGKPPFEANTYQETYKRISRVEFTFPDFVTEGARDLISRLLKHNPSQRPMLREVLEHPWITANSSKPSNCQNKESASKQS

[10] = target: Mitogen-activated protein kinase kinase kinase 20 (Homo sapiens) (UniProt Q9NYL2); test: ZAK Invitrogen selectivity data (BI); settings: Compound concentration 3.0 uM
Mitogen-activated protein kinase kinase kinase 20 (Homo sapiens), sequence (Q9NYL2 2-800 limits assumed): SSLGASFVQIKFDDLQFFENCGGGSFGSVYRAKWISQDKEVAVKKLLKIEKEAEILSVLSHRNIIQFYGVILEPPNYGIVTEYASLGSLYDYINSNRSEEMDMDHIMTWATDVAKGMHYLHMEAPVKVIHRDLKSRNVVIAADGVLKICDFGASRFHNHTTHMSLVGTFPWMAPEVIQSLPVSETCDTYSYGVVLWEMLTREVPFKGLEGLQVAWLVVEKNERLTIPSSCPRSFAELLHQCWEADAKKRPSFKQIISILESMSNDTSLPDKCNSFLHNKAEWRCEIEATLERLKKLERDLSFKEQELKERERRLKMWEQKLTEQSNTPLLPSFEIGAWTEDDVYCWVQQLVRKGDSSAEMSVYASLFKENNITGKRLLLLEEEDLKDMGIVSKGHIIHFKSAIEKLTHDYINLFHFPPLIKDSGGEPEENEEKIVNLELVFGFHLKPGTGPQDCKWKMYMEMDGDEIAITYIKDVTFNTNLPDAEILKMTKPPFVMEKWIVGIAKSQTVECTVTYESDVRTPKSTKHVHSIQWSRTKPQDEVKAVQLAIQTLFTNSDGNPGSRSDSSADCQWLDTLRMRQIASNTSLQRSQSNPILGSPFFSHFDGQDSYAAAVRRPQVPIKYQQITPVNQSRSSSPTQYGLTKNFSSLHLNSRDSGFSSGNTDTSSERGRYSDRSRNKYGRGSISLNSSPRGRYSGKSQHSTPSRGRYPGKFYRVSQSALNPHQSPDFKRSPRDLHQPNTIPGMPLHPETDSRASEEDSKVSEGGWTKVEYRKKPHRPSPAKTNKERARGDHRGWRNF

Measured: residual activity

Death-associated protein kinase 3 (Homo sapiens), sequence (O43293 whole entry, looked up): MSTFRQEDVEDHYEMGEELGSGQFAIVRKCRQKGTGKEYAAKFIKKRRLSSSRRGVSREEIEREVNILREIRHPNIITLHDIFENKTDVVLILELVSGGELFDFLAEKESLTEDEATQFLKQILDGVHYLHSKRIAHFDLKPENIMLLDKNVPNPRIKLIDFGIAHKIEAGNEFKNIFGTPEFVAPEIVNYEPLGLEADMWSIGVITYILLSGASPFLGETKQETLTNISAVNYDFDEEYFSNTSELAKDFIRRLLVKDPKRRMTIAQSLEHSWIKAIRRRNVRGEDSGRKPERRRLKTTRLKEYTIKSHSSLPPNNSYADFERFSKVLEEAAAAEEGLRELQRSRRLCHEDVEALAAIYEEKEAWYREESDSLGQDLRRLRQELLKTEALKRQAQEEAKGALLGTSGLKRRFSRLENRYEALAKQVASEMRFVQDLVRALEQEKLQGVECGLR

CN(C)C(=O)Cn1cc(-c2nc(C3(c4ccc(-c5cnc(N)nc5)cc4)CC3)no2)cn1 [BI 0153]
inactive: [1] 92%

CN(C)C(=O)Cn1cc(-c2nc([C@@](C)(c3ccc(-c4cnc(N)nc4)cc3)C3CC3)no2)cn1 [BI 665915]
inactive: [2] 120% | [3] 102% | [4] 87% | [5] 99.5% | [6] 101% | [7] 93% | [8] 97.5% | [9] 75.5% | [10] 97%
